Data: US8178506B2, “Oligomeric compounds and compositions for use in modulation of small non-coding RNAs” (Regulus Therapeutics Inc., priority 2003, dated 2012)
“Also recorded” adds a separate entry of the source.

system: PPARγ; experiment: PPARγ mRNA expression in adipocytes (real-time PCR); type: cell-based, human; details: preadipocytes, 250 nM, day nine

Row | Substance | expression of PPAR-γ
1 | AACCATACAACCTACTACCTCA (chemistry not given here) [ISIS 327931, uniform 2′-MOE PS; targets let-7c] | significant increase in the expression of PPAR-γ

system: preadipocytes / differentiating adipocytes; experiment: Adipocyte differentiation assay, markers taken together; type: cell-based, human; details: differentiating adipocytes, % of UTC (Table 55)
Description: Oligomeric compounds of the invention are tested for their effects on preadipocyte differentiation. […] For the other adipocyte differentiation markers assayed, an oligomeric compound targeted to PPAR-γ, also known to inhibit adipocyte differentiation, may be used as a positive control.
Cells are transfected as described herein. […] Untreated control cells receive LIPOFECTIN™ only.
After the cells have reach confluence (approximately three days), they are exposed for an additional three days to differentiation medium (Zen-Bio, Inc., Research Triangle Park, N.C.) containing a PPAR-γ agonist, IBMX, dexamethasone, and insulin. Cells are then fed adipocyte medium (Zen-Bio, Inc.), which is replaced at 2 or 3 day intervals.
For assaying adipocyte differentiation, expression of the four hallmark genes, HSL, aP2, Glut4, and PPARγ, as well as triglyceride (TG) accumulation and leptin secretion were measured in adipocytes transfected with the uniform 2′-MOE phosphorothioate (PS) oligomeric compounds previously described. Cells are lysed on day nine post-transfection, in a guanadinium-containing buffer and total RNA is harvested. Real-time PCR is performed (Applied Biosystems, Prism 7700) on the total RNA using the following primer/probe sets for the adipocyte differentiation hallmark genes: (aP2): forward 5′-GGTGGTGGAATGCGTCATG-3′ (SEQ ID NO: 746), reverse 5′-[…]-3′ (SEQ ID NO: 747), probe 5′-FAM-[…]-TAMRA-3′ (SEQ ID NO: 748); (Glut4): forward 5′-GGCCTCCGCAGGTTCTG-3′ (SEQ ID NO: 749), reverse 5′-[…]-3′ (SEQ ID NO: 750), probe 5′-FAM-[…]-TAMRA-3′ (SEQ ID NO: 751); (HSL): forward 5′-ACCTGCGCACAATGACACA-3′ (SEQ ID NO: 752), reverse 5′-[…]-3′ (SEQ ID NO: 753), probe 5′-FAM-[…]-TAMRA-3′ (SEQ ID NO: 754); (PPAR-γ): forward 5′-[…]-3′ (SEQ ID NO: 755), reverse 5′-[…]-3′ (SEQ ID NO: 756), probe 5′-FAM-[…]-TAMRA-3′ (SEQ ID NO: 757). The amount of total RNA in each sample is determined using a Ribogreen Assay (Molecular Probes, Eugene, Oreg.), and expression levels of the adipocyte differentiation hallmark genes were normalized to total RNA. Leptin protein and triglyceride levels as well as mRNA levels for each of the four adipocyte differentiation hallmark genes are expressed relative to control levels (control=treatment with ISIS-29848 (SEQ ID NO: 737)).
In some embodiments, differentiating adipocytes were treated with uniform 2′-MOE phosphorothioate oligomeric compounds according to the methods described above, and the expression of the four hallmark genes, HSL, aP2, Glut4, and PPARγ, as well as triglyceride (TG) accumulation were measured. […] Undifferentiated adipocytes were also compared as a negative control. […] The effects of TNF-α, also known to inhibit adipocyte differentiation, were also measured.

Row | Substance | five markers of adipocyte differentiation
2 | CCCCATCTTAGCATCTAAGG (chemistry not fully specified) [ISIS 328691, 5-10-5 2′-MOE gapmer PS; targets mir-145 pri-miRNA] | increase in all five markers of adipocyte differentiation
3 | CCCAACAACATGAAACTACCTA (chemistry not given here) [ISIS 327909, uniform 2′-MOE PS; targets mir-196-2] | increase in three of the five markers of adipocyte differentiation
4 | TCCTGGATGATATCTACCTC (chemistry not fully specified) [ISIS 328677, 5-10-5 2′-MOE gapmer PS; targets hypothetical miRNA-120 pri-miRNA] | reduce the expression levels of all five markers of adipocyte differentiation
5 | ACTCACCGACAGCGTTGAATGTT (chemistry not given here) [ISIS 327904, uniform 2′-MOE PS; targets mir-181a] | reduce the expression levels of all five markers of adipocyte differentiation
6 | GTCTGTCAATTCATAGGTCAT (chemistry not given here) [ISIS 327960, uniform 2′-MOE PS; targets mir-215] | reduce the expression levels of all five markers of adipocyte differentiation

same assay, conditions: differentiating adipocytes, % of UTC (Table 75)

Row | Substance | 5 markers of adipocyte differentiation
7 | ISIS 344615: SEQ ID NO: 1900, targeted to mir-244* (Kosik) (antisense UCAACAAAAUCACUGAUGCUGGA; all 2'-MOE, all phosphorothioate, methylation of C and T or U not given here) | significant increases in all 5 markers of adipocyte differentiation
8 | ISIS 348117: SEQ ID NO: 1860, targeted to mir-321-1 (antisense GAACCCACAAUCCCUGGCUUA; all 2'-MOE, all phosphorothioate, methylation of C and T or U not given here) | significantly reduce the expression levels of 3 of the 5 markers of adipocyte differentiation
9 | ISIS 340352: SEQ ID NO: 1821, targeted to mir-99 (Mourelatos) (CACAAGAUCGGAUCUACGGGUU; all 2'-MOE, all phosphorothioate, methylation of C and T or U not given here) | increases in 4 of the 5 markers of adipocyte differentiation
10 | ISIS 348127: SEQ ID NO: 1869, targeted to mir-27b (antisense GCAGAACUUAGCCACUGUGAA; all 2'-MOE, all phosphorothioate, methylation of C and T or U not given here) | significant increases in all 5 markers of adipocyte differentiation
11 | ISIS 344340: SEQ ID NO: 1921, targeted to mir-140 (antisense UGUCCGUGGUUCUACCCUGUGGUA; all 2'-MOE, all phosphorothioate, methylation of C and T or U not given here) | significantly reduce the expression levels of 3 of the 5 markers of adipocyte differentiation
12 | ISIS 346685: SEQ ID NO: 1884, targeted to mir-27 (Mourelatos) (antisense GGCGGAACUUAGCCACUGUGAA; all 2'-MOE, all phosphorothioate, methylation of C and T or U not given here) | significant increases in all 5 markers of adipocyte differentiation
13 | CTACCTGCACGAACAGCACTTT (chemistry not given here) [ISIS 340348, uniform 2′-MOE PS; targets mir-93] | significantly reduce the expression levels of 3 of the 5 markers of adipocyte differentiation
14 | ISIS 346687: SEQ ID NO: 1802, targeted to mir-129-1 (antisense AGCAAGCCCAGACCGCAAAAAG; all 2'-MOE, all phosphorothioate, methylation of C not given here) | significantly reduce the expression levels of 3 of the 5 markers of adipocyte differentiation
15 | ISIS 341798: SEQ ID NO: 1871, targeted to mir-123/mir-126 (antisense GCAUUAUUACUCACGGUACGA; all 2'-MOE, all phosphorothioate, methylation of C and T or U not given here) | significantly reduce the expression levels of 3 of the 5 markers of adipocyte differentiation
16 | CCAAGTGTTAGAGCAAGATCA (anti-miR; chemistry not fully specified) [ISIS 328126, uniform 2′-MOE PS; targets hypothetical miRNA-170] | increases in 4 of the 5 markers of adipocyte differentiation

same assay, conditions: differentiating adipocytes, control ISIS 342673

Row | Substance | expression of the other four hallmark genes (HSL, aP2, Glut4, PPARγ)
17 | TCCACAAAGCTGAACATGTCT (anti-miR; chemistry not fully specified) [ISIS 328117, uniform 2′-MOE PS; targets hypothetical miRNA-144] | reduction of expression of the other four hallmark genes
18 | AGCCTCCTTCTTCTCGTACTA (anti-miR; chemistry not fully specified) [ISIS 328129, uniform 2′-MOE PS; targets hypothetical miRNA-173] | reduction of expression of the other four hallmark genes

same assay, conditions: preadipocytes (Table 20)

Row | Substance | expression of the adipocyte differentiation markers, compounds targeting mir-143 miRNA or pri-miRNA compared
19 | CAGACTCCCAACTGACCAGA (chemistry not fully specified) [ISIS 328382, 5-10-5 2′-MOE gapmer PS; targets the mir-143 pri-miRNA] | more effective in blocking adipocyte differentiation

same assay, conditions: preadipocytes, 250 nM, day nine post-transfection, relative to ISIS-29848

Row | Substance | expression levels of markers of adipocyte differentiation (TG, leptin, aP2, HSL, Glut4, PPARγ)
20 | CCATCTTTACCAGACAGTGTT (anti-miR; chemistry not fully specified) [ISIS 327942, uniform 2′-MOE PS; targets mir-141] | significantly reduce the expression levels of 5 of 6 markers of adipocyte differentiation
21 | AACACTGATTTCAAATGGTGCTA (anti-miR; chemistry not fully specified) [ISIS 327876, uniform 2′-MOE PS; targets mir-29b-1] | reduce the expression of several hallmark genes of adipocyte differentiation
22 | AACTATACAACCTACTACCTCA (chemistry not fully specified) [ISIS 327903, uniform 2′-MOE PS; targets let-7a-3] | increase in expression levels for several markers of adipocyte differentiation
23 | AACCATACAACCTACTACCTCA (chemistry not given here) [ISIS 327931, uniform 2′-MOE PS; targets let-7c] | increase in four out of six markers of adipocyte differentiation; also recorded: increase in expression levels for several markers of adipocyte differentiation

system: BJ, B16-F10, T47D, T47Dp53 and HeLa cells; experiment: Cell cycle assay (propidium iodide flow cytometry), cell line panel; type: cell-based; details: 150 nM, 72 hours (Table 29)

Row | Substance | percentage of cells with hypodiploid DNA content (subG1)
24 | CTACCTGCACGAACAGCACTTT (chemistry not given here) [ISIS 340348, uniform 2′-MOE PS; targets mir-93] | increased percentage of cells with hypodiploid DNA content
